Measured values reported in ChEMBL document CHEMBL3813638, “Investigation of the apoptotic pathway induced by benzimidazole-oxindole conjugates against human breast cancer cells MCF-7” (Bioorg Med Chem Lett, 2016).
Active and inactive are the calls of the source. The calls are words filed in the database; no cut-off is given here.

Legend:
[1] = system: MCF7; assay: Induction of apoptosis in human MCF7 cells assessed as suppression of Bcl-2 expression after 48 hrs by Western blot analysis; format: functional, cell-based
[2] = system: MCF7; assay: Induction of apoptosis in human MCF7 cells assessed as increase in Bax expression after 48 hrs by Western blot analysis; format: functional, cell-based
[3] = system: MCF7; assay: Induction of apoptosis in human MCF7 cells assessed as increase in cytochrome c levels at 1 to 2 uM after 48 hrs by Western blot analysis; format: functional, cell-based
[4] = system: MCF7; assay: Induction of apoptosis in human MCF7 cells assessed as increase in caspase-9 activation at 1 to 2 uM after 48 hrs by Western blot analysis; format: functional, cell-based
[5] = system: MCF7; assay: Induction of apoptosis in human MCF7 cells assessed as increase in PARP 89 KDa cleavage at 1 to 2 uM after 48 hrs by Western blot analysis; format: functional, cell-based
[6] = system: HEK293; assay: Cytotoxicity against human HEK293 cells assessed as cell growth inhibition after 48 hrs by MTT assay; format: cell-based; details: HEK293, 48 h
[7] = system: Vero; assay: Cytotoxicity against African green monkey Vero cells assessed as cell growth inhibition after 48 hrs by MTT assay; format: cell-based; details: Chlorocebus sabaeus
[8] = system: MCF7; assay: Disruption of mitochondrial membrane potential in human MCF7 cells assessed as cells with vital and intact mitochondrial membrane at 1 uM after 48 hrs by JC-1 staining based flow cytometry (reference value: 94%); format: functional
[9] = system: MCF7; assay: Disruption of mitochondrial membrane potential in human MCF7 cells assessed as cells with vital and intact mitochondrial membrane at 2 uM after 48 hrs by JC-1 staining based flow cytometry (reference value: 94%); format: functional
[10] = system: MCF7; assay: Induction of ROS generation in human MCF7 cells at 1 uM after 48 hrs by DCFDA fluorescent probe based flow cytometry (reference value: 5.3%); format: functional
[11] = system: MCF7; assay: Induction of ROS generation in human MCF7 cells at 2 uM after 48 hrs by DCFDA fluorescent probe based flow cytometry (reference value: 5.3%); format: functional
[12] = system: MCF7; assay: Induction of apoptosis in human MCF7 cells assessed as viable cells at 1 uM after 24 hrs by Annexin V-FITC/PI dual staining based flow cytometry (reference value: 94.9%); format: functional; details: MCF7, 24 h, read-out: Activity
[13] = system: MCF7; assay: Induction of apoptosis in human MCF7 cells assessed as early apoptotic cells at 1 uM after 24 hrs by Annexin V-FITC/PI dual staining based flow cytometry (reference value: 3.5%); format: functional
[14] = system: MCF7; assay: Induction of apoptosis in human MCF7 cells assessed as late apoptotic cells at 1 uM after 24 hrs by Annexin V-FITC/PI dual staining based flow cytometry (reference value: 1.5%); format: functional
[15] = system: MCF7; assay: Induction of apoptosis in human MCF7 cells assessed as necrotic cells at 1 uM after 24 hrs by Annexin V-FITC/PI dual staining based flow cytometry (reference value: 0.1%); format: functional
[16] = system: MCF7; assay: Induction of apoptosis in human MCF7 cells assessed as viable cells at 2 uM after 24 hrs by Annexin V-FITC/PI dual staining based flow cytometry (reference value: 94.9%); format: functional; details: MCF7, 24 h, read-out: Activity
[17] = system: MCF7; assay: Induction of apoptosis in human MCF7 cells assessed as early apoptotic cells at 2 uM after 24 hrs by Annexin V-FITC/PI dual staining based flow cytometry (reference value: 3.5%); format: functional
[18] = system: MCF7; assay: Induction of apoptosis in human MCF7 cells assessed as late apoptotic cells at 2 uM after 24 hrs by Annexin V-FITC/PI dual staining based flow cytometry (reference value: 1.5%); format: functional
[19] = system: MCF7; assay: Induction of apoptosis in human MCF7 cells assessed as necrotic cells at 2 uM after 24 hrs by Annexin V-FITC/PI dual staining based flow cytometry (reference value: 0.1%); format: functional
[20] = system: MCF7; assay: Cytotoxicity against human MCF7 cells; format: functional, cell-based

Compound | Activity [1] | Activity [2] | Activity [3] | Activity [4] | Activity [5] | IC50 [6] [µM] | IC50 [7] [µM] | Activity [8] [%] | Activity [9] [%] | Activity [10] [%] | Activity [11] [%] | viability at 1 µM [12] [%] | Activity [13] [%] | Activity [14] [%] | Activity [15] [%] | viability at 2 µM [16] [%] | Activity [17] [%] | Activity [18] [%] | Activity [19] [%] | IC50 [20] [µM]
COc1ccc(-c2nc3ccc(/C=C4\C(=O)Nc5ccc(Cl)cc54)cc3[nH]2)cc1 | Dose-dependent effect | Dose-dependent effect | Active | Active | Active | 170 | 109 | 80.7 | 57.7 | 21.9 | 33.8 | 40.7 | 26.3 | 31.3 | 1.6 | 27 | 35.4 | 36.5 | 1.1 | 1.84
O=C1Nc2cc(Cl)ccc2/C1=C/c1ccc2nc(-c3cc(F)cc(F)c3)[nH]c2c1 | Dose-dependent effect | Dose-dependent effect | Active | Active | Active | 147 | 97.9 | 83.1 | 61.8 | 20.3 | 30 | 42.3 | 32.5 | 23.4 | 1.8 | 31 | 33 | 34.9 | 1.2 | 1.97
